# Measurements from patent publication US6355799B1, “Substituted benzene compounds, process for their preparation, and herbicidal and defoliant compositions containing them” (ISK Americas Incorporated, priority 1997, dated 2002).
# Tests used:
# Assay type in all cases: in vivo
# [1] = test system: redroot pigweed (Amaranthus retroflexus, AMARE); assay: Pre-emerge test, greenhouse herbicide activity screening; details: pre-emerge, rated 14 days after application, 0 = no damage, 100 = complete death
# Summary of the method: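 Visual ratings on a 0-100 scale (0 no damage, 100 all plants dead) were taken at 14 days after treatment. Rates of 15-1000 g ai/ha in acetone, 187 l/ha, were sprayed onto soil one day after planting (pre-emerge) or onto 2-3 leaf plants with 0.25% v/v surfactant (post-emerge).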
# [2] = test system: barnyardgrass (Echinochloa crus-galli, ECHCG); assay: as above; details: pre-emerge, rated 14 days after application, 0 = no damage, 100 = complete death
# Summary of the method: (§1)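 Applied at 15–1000 g ai/ha from acetone in 187 l/ha spray volume. Post-emergence applications included 0.25% v/v non-ionic surfactant and reached plants sown 8–21 days before. Pre-emergence applications were incorporated by surface watering. Efficacy or crop damage was rated on a 0–100 scale after 14 days.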
# [3] = test system: green foxtail (Setaria viridis, SETVI); assay: as above; details: pre-emerge, rated 14 days after application, 0 = no damage, 100 = complete death
# Summary of the method: as §1
# [4] = test system: ivyleaf morningglory (Ipomoea hederacea, IPOHE); assay: as above; details: pre-emerge, rated 14 days after application, 0 = no damage, 100 = complete death
# Summary of the method: as §1
# [5] = test system: johnsongrass (Sorghum halepense, SORHA); assay: as above; details: pre-emerge, rated 14 days after application, 0 = no damage, 100 = complete death
# Summary of the method: as §1
# [6] = test system: lambsquarters (Chenopodium album, CHEAL); assay: as above; details: pre-emerge, rated 14 days after application, 0 = no damage, 100 = complete death
# Summary of the method: as §1
# [7] = test system: large crabgrass (Digitaria sanguinalis, DIGSA); assay: as above; details: pre-emerge, rated 14 days after application, 0 = no damage, 100 = complete death
# Summary of the method: as §1
# [8] = test system: sicklepod (Cassia obtusifolia, CASOB); assay: as above; details: pre-emerge, rated 14 days after application, 0 = no damage, 100 = complete death
# Summary of the method: as §1
# [9] = test system: velvetleaf (Abutilon theophrasti, ABUTH); assay: as above; details: pre-emerge, rated 14 days after application, 0 = no damage, 100 = complete death
# Summary of the method: as §1
# [10] = test system: field corn (Zea mays L., var. Dekalb 535, CORN); assay: Pre-emerge test, crop safety; details: pre-emerge, rated 14 days after application, 0 = no damage, 100 = complete death
# Summary of the method: (§2)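 Herbicidal damage is scored 0 (none) to 100 (complete plant death) two weeks after a simulated field spray. Rates span 15–1000 g ai/ha, delivered in acetone at 187 l/ha. For post-emergence treatments, plants have 2–3 leaves and the spray carries 0.25% v/v non-ionic surfactant.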
# [11] = test system: upland rice (Oryza sp., var. Tebonnet, RICE); assay: Pre-emerge test, crop safety; details: pre-emerge, rated 14 days after application, 0 = no damage, 100 = complete death
# Summary of the method: as §2
# [12] = test system: barnyardgrass (Echinochloa crus-galli, ECHCG); assay: Post-emerge test, greenhouse herbicide activity screening; details: phytotoxicity rating 0-100 (0 no damage, 100 complete death), 14 days after application
# Summary of the method: (§3)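 Each test used a mechanized track sprayer delivering 187 l/ha of acetone solution at 15–1000 g ai/ha. Post-emerge foliage at 2–3 leaves was treated with added 0.25% v/v non-ionic surfactant and bottom-watered only. Injury was assessed on day 14, where 100 means total kill.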
# [13] = test system: common ragweed (Ambrosia artemisizfolia L., AMBEL); assay: as above; details: phytotoxicity rating 0-100 (0 no damage, 100 complete death), 14 days after application
# Summary of the method: as §3
# [14] = test system: green foxtail (Setaria viridis, SETVI); assay: as above; details: phytotoxicity rating 0-100 (0 no damage, 100 complete death), 14 days after application
# Summary of the method: as §3
# [15] = test system: ivyleaf morningglory (Ipomoea hederacea, IPOHE); assay: as above; details: phytotoxicity rating 0-100 (0 no damage, 100 complete death), 14 days after application
# Summary of the method: as §3
# [16] = test system: johnsongrass (Sorghum halepense, SORHA); assay: as above; details: phytotoxicity rating 0-100 (0 no damage, 100 complete death), 14 days after application
# Summary of the method: as §3
# [17] = test system: lambsquarters (Chenopodium album, CHEAL); assay: as above; details: phytotoxicity rating 0-100 (0 no damage, 100 complete death), 14 days after application
# Summary of the method: as §3
# [18] = test system: large crabgrass (Digitaria sanguinalis, DIGSA); assay: as above; details: phytotoxicity rating 0-100 (0 no damage, 100 complete death), 14 days after application
# Summary of the method: as §3
# [19] = test system: redroot pigweed (Amaranthus retroflexus, AMARE); assay: as above; details: phytotoxicity rating 0-100 (0 no damage, 100 complete death), 14 days after application
# Summary of the method: as §3
# [20] = test system: sicklepod (Cassia obtusifolia, CASOB); assay: as above; details: phytotoxicity rating 0-100 (0 no damage, 100 complete death), 14 days after application
# Summary of the method: as §3
# [21] = test system: velvetleaf (Abutilon theophrasti, ABUTH); assay: as above; details: phytotoxicity rating 0-100 (0 no damage, 100 complete death), 14 days after application
# Summary of the method: as §3
# [22] = test system: field corn (Zea mays L., var. Dekalb 535, CORN); assay: Post-emerge test, crop safety; details: phytotoxicity rating 0-100 (0 no damage, 100 complete death), 14 days after application
# Summary of the method: as §1
# [23] = test system: upland rice (Oryza sp., var. Tebonnet, RICE); assay: Post-emerge test, crop safety; details: phytotoxicity rating 0-100 (0 no damage, 100 complete death), 14 days after application
# Summary of the method: as §1
smiles,measurement,setting,value
"COc1c(Cl)cc(F)c(-n2c(=O)cc(C(F)(F)F)n(C)c2=O)c1N=CN(C)C [Compound 1-31, 3-[4-chloro-2-(dimethylaminomethynyl)imino-6-fluoro-3-methoxyphenyl]-1-methyl-6-trifluoromethyl-2,4(1H, 3H)-pyrimidinedione]","Pre-emerge Herbicidal Activity AMARE (phytotoxicity rating, scale 0-100)",[1]; 63 g ai/ha,80
same,"Pre-emerge Herbicidal Activity AMARE (phytotoxicity rating, scale 0-100)",[1]; 250 g ai/ha,100
same,"Pre-emerge Herbicidal Activity ECHCG (phytotoxicity rating, scale 0-100)",[2]; 63 g ai/ha,0
same,"Pre-emerge Herbicidal Activity ECHCG (phytotoxicity rating, scale 0-100)",[2]; 250 g ai/ha,40
same,"Pre-emerge Herbicidal Activity SETVI (phytotoxicity rating, scale 0-100)",[3]; 63 g ai/ha,50
same,"Pre-emerge Herbicidal Activity SETVI (phytotoxicity rating, scale 0-100)",[3]; 250 g ai/ha,100
same,"Pre-emerge Herbicidal Activity IPOHE (phytotoxicity rating, scale 0-100)",[4]; 63 g ai/ha,0
same,"Pre-emerge Herbicidal Activity IPOHE (phytotoxicity rating, scale 0-100)",[4]; 250 g ai/ha,80
same,"Pre-emerge Herbicidal Activity SORHA (phytotoxicity rating, scale 0-100)",[5]; 63 g ai/ha,0
same,"Pre-emerge Herbicidal Activity SORHA (phytotoxicity rating, scale 0-100)",[5]; 250 g ai/ha,90
same,"Pre-emerge Herbicidal Activity CHEAL (phytotoxicity rating, scale 0-100)",[6]; 63 g ai/ha,95
same,"Pre-emerge Herbicidal Activity CHEAL (phytotoxicity rating, scale 0-100)",[6]; 250 g ai/ha,100
same,"Pre-emerge Herbicidal Activity DIGSA (phytotoxicity rating, scale 0-100)",[7]; 63 g ai/ha,0
same,"Pre-emerge Herbicidal Activity DIGSA (phytotoxicity rating, scale 0-100)",[7]; 250 g ai/ha,90
same,"Pre-emerge Herbicidal Activity CASOB (phytotoxicity rating, scale 0-100)",[8]; 63 g ai/ha,70
same,"Pre-emerge Herbicidal Activity CASOB (phytotoxicity rating, scale 0-100)",[8]; 250 g ai/ha,95
same,"Pre-emerge Herbicidal Activity ABUTH (phytotoxicity rating, scale 0-100)",[9]; 63 g ai/ha,100
same,"Pre-emerge Herbicidal Activity ABUTH (phytotoxicity rating, scale 0-100)",[9]; 250 g ai/ha,100
same,"Pre-emerge crop damage CORN (phytotoxicity rating, scale 0-100)",[10]; 63 g ai/ha,0
same,"Pre-emerge crop damage CORN (phytotoxicity rating, scale 0-100)",[10]; 250 g ai/ha,50
same,"Pre-emerge crop damage RICE (phytotoxicity rating, scale 0-100)",[11]; 63 g ai/ha,0
same,"Pre-emerge crop damage RICE (phytotoxicity rating, scale 0-100)",[11]; 250 g ai/ha,10
same,Post-emerge Herbicidal Activity ECHCG,[12]; 63 g ai/ha,0
same,Post-emerge Herbicidal Activity ECHCG,[12]; 250 g ai/ha,0
same,Post-emerge Herbicidal Activity AMBEL,[13]; 63 g ai/ha,0
same,Post-emerge Herbicidal Activity AMBEL,[13]; 250 g ai/ha,0
same,Post-emerge Herbicidal Activity SETVI,[14]; 63 g ai/ha,0
same,Post-emerge Herbicidal Activity SETVI,[14]; 250 g ai/ha,0
same,Post-emerge Herbicidal Activity IPOHE,[15]; 63 g ai/ha,10
same,Post-emerge Herbicidal Activity IPOHE,[15]; 250 g ai/ha,50
same,Post-emerge Herbicidal Activity SORHA,[16]; 63 g ai/ha,0
same,Post-emerge Herbicidal Activity SORHA,[16]; 250 g ai/ha,0
same,Post-emerge Herbicidal Activity CHEAL,[17]; 63 g ai/ha,0
same,Post-emerge Herbicidal Activity CHEAL,[17]; 250 g ai/ha,40
same,Post-emerge Herbicidal Activity DIGSA,[18]; 63 g ai/ha,0
same,Post-emerge Herbicidal Activity DIGSA,[18]; 250 g ai/ha,0
same,Post-emerge Herbicidal Activity AMARE,[19]; 63 g ai/ha,10
same,Post-emerge Herbicidal Activity AMARE,[19]; 250 g ai/ha,30
same,Post-emerge Herbicidal Activity CASOB,[20]; 63 g ai/ha,0
same,Post-emerge Herbicidal Activity CASOB,[20]; 250 g ai/ha,0
same,Post-emerge Herbicidal Activity ABUTH,[21]; 63 g ai/ha,20
same,Post-emerge Herbicidal Activity ABUTH,[21]; 250 g ai/ha,50
same,Post-emerge Herbicidal Activity CORN (crop damage),[22]; 63 g ai/ha,0
same,Post-emerge Herbicidal Activity CORN (crop damage),[22]; 250 g ai/ha,0
same,Post-emerge Herbicidal Activity RICE (crop damage),[23]; 63 g ai/ha,0
same,Post-emerge Herbicidal Activity RICE (crop damage),[23]; 250 g ai/ha,10
